# Assay results from patent US10668032B2 (SyneuRx International (Taiwan) Corp., priority 2016, dated 2020).
# How the values were obtained:
# primary cortical cells = assay: Neurogenesis (BrdU/NeuN co-localization) in primary cortical culture after Aβ25-35; type: cell-based, rat; conditions: 0.5 mM, 4 days; compared with the other two drugs
# Description: Primary cortical cultures were prepared from embryonic day 18 (E18) fetal Spragu-Dawley (SD) rat brains. Culture medium was removed from cells and replace with BrdU labeling solution and incubated at 37° C. for 4 days aligned with treatments after Aβ25-35 for 2 days. Cells were fixed in 4% PFA and washed in PBS, blocked with 2% bovine serum albumin (BSA) and 0.03% Triton X-100 in PBS, acid-washed with 2N HCl and phosphate/citric acid buffer (pH 7.4). Next, anti-BrdU primary antibody (1:250, Thermo Scientific) or anti-NeuN primary antibody (1:300, Abcam) were added. The goat anti-rat IgGAlexa Fluor-conjugated secondary antibodies (1:200; Thermo Scientific); anti-mouse IgG Alexa Fluor-conjugated secondary antibodies (1:500; Thermo Scientific) were applied to recognize the primary antibodies of the BrdU and NeuN respectively.
# (§1) The coverslips were observed under a digital imaging fluorescence microscope (Olympus BX61; Japan) equipped with filter sets to detect the corresponding fluorescence signals.
# The second part of mechanism study was focused on neurogenesis. The impairment of neurogenesis in the adult hippocampus has been an important evidence of the pathogenesis of Alzheimer's disease. […]
# [1] = Plasma pharmacokinetics of lithium after oral gavage (ICP-MS)
# Description: Male Sprague-Dawley rats weighed between 240-260 g were randomly assigned to two groups. […] These two regimens would provide the same molarity of lithium and benzoate. The chemicals were dissolved in PBS, and then administrated by oral gavage. All rats were fasted overnight with free access to water before experiments. After single dose administration of drugs, the blood samples were then collected at the time point 0, 5, 15, 30, 60, 90, 120, 240, 360, 720, and 1440 min.
# Blood samples were collected in tubes coated with sodium heparin from jugular vein catheterized rats. Then, the blood samples were kept on ice and centrifuged at 2,500×g for 15 min at 4° C. The supernatant was collected and then kept frozen at −80° C. until further processing.
# [2] = tested on: MPTP/3-NP-induced C57BL/6J mice; assay: Rotarod in MPTP plus 3-NP intoxicated mice (MSA-P model); type: in vivo, mouse; conditions: 256 mg/kg body weight/day for one week after 9 days MPTP/3-NP, vs saline
# Description: Male C57BL/6J mice (age, 8-12 weeks) were randomly assigned to 2 groups—vehicle control and MPTP/3-NP-induced groups. MPTP and 3-NP were administered during a 9-day intoxication period. 3-NP was administered i.p. every 12 h (total dose 450 mg/kg in 9 days) and MPTP i.p. at 10 mg/kg/day (total dose 90 mg/kg in 9 days).
# Rotarod motor activity was measured before and after chronic MPTP/3-NP induction, respectively. Time spent on the rod at each level of revolving speed indicated motor performance. Mice were trained at the speed accelerating from 4 to 10 rpm over 5 min before the test (−7, −5, −3 Days). During the test, all animals started at 4 rpm and accelerated from 4 to 20 rpm over 5 min with each mouse experiencing three trials per day with inter-trial interval of 10 min. The average latency time of each mouse to fall is calculated.
# [3] = tested on: GFAP positive cells in cortical culture; assay: GFAP immunocytochemistry in cortical culture after Aβ25-35; type: cell-based, rat
# Description: Cells were fixed in 4% PFA and washed in PBS, blocked with 2% bovine serum albumin (BSA) and 0.03% Triton X-100 in PBS, and then incubated with mouse monoclonal antibody against microtubule-associated protein-2 (MAP-2) (Cat. No. MAB378, 1:150, CHEMICON International, Inc., Temecula, Calif., USA); rabbit polyclonal antibody against GFAP (Cat. No. Z0334, 1:600, DakoCytomation Denmark A/S, Denmark). The goat anti-mouse IgG Alexa Fluor-conjugated secondary antibodies (1:500; Cat No. A11003, Thermo Scientific); anti-rabbit IgG Alexa Fluor-conjugated secondary antibodies (1:500; Thermo Scientific) were applied respectively to recognize the primary antibodies of the MAP-2 and GFAP.
# as §1
# Glial fibrillary acidic protein (GFAP) is an intermediate filament protein expressed by cells in the CNS, and is also recognized as an astrocyte maturation marker. Upregulation of GFAP, indicating gliosis, is commonly observed after CNS lesion; therefore, expression of GFAP could be useful to understand the state of neurological diseases.
# [4] = tested on: cortical cells with Aβ25-35 exposure; assay: Aβ25-35 cytotoxicity with or without NMDA receptor antagonist MK801, cell survival
# Description: Aβ25-35 (Cat. No. A4559, Sigma) was dissolved in autoclaved ddH2O to make a stock solution of 2 mM, dispensed into aliquots, and immediately stored at −80° C. until use.
# In this study, the application of MK801 could reveal whether the neuroprotective effects of drugs were mediated by NMDA receptor.
structure (smiles),measurement,setting,value
O=C([O-])c1ccccc1.[Li+] [lithium benzoate],neurogenesis (BrdU(+)/NeuN(+) cells) after Aβ25-35 exposure,primary cortical cells,unsurpassed performance of neurogenesis
same,Tmax of lithium,"[1]; rat, single oral gavage, NaBen 287.9 mg/kg + Li2CO3 74.2 mg/kg or LiBen 255.3 mg/kg",2.208 h
same,Cmax,"[1]; read-out: Cmax of lithium, rat, single oral gavage, NaBen 287.9 mg/kg + Li2CO3 74.2 mg/kg or LiBen 255.3 mg/kg",1720 µM
same,retention time on rotarod,[2],significantly improved
same,reduction of GFAP positive cells compared with LiCl,[3]; LiBen 0.5 mM vs LiCl 1 mM,better effect than LiCl
same,number of GFAP positive cells after Aβ25-35 exposure,[3]; post-treatment 0.5 mM,significantly reduced
same,protective effect with or without MK801 treatment,"[4]; 0.5 mM, MK801 10 μM vs 0 μM",No obvious differences
same,cell survival with Aβ25-35 exposure,"[4]; post-treatment 0.5 mM, MK801 0 μM",elevate the cell survival
